{"source": "ChEMBL document CHEMBL1201862", "about": "“PubChem BioAssay data set” (2004)", "type_in_all_cases": "functional", "key": {"Caspase-3 [1]": {"target": "T1, Caspase-3 (Homo sapiens, UniProt P42574)", "T1 sequence (P42574 whole entry)": "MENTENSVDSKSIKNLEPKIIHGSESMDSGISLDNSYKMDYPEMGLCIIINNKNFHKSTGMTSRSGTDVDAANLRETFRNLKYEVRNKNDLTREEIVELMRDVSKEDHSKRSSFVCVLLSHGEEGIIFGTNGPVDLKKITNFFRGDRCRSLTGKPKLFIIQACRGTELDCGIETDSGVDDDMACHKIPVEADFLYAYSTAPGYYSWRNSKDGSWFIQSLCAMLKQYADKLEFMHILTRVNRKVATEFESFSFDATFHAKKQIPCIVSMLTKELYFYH", "test": "SAR Analysis of small molecule inhibitors of Sentrin-specific proteases (SENPs) using a Caspase-3 Selectivity assay. [Related pubchem assays (depositor defined):AID2540, AID2599, AID434973, AID489001]"}, "[2]": {"target": "T2, Sentrin-specific protease 6 (Homo sapiens, UniProt Q9GZR1)", "T2 sequence (Q9GZR1 whole entry)": "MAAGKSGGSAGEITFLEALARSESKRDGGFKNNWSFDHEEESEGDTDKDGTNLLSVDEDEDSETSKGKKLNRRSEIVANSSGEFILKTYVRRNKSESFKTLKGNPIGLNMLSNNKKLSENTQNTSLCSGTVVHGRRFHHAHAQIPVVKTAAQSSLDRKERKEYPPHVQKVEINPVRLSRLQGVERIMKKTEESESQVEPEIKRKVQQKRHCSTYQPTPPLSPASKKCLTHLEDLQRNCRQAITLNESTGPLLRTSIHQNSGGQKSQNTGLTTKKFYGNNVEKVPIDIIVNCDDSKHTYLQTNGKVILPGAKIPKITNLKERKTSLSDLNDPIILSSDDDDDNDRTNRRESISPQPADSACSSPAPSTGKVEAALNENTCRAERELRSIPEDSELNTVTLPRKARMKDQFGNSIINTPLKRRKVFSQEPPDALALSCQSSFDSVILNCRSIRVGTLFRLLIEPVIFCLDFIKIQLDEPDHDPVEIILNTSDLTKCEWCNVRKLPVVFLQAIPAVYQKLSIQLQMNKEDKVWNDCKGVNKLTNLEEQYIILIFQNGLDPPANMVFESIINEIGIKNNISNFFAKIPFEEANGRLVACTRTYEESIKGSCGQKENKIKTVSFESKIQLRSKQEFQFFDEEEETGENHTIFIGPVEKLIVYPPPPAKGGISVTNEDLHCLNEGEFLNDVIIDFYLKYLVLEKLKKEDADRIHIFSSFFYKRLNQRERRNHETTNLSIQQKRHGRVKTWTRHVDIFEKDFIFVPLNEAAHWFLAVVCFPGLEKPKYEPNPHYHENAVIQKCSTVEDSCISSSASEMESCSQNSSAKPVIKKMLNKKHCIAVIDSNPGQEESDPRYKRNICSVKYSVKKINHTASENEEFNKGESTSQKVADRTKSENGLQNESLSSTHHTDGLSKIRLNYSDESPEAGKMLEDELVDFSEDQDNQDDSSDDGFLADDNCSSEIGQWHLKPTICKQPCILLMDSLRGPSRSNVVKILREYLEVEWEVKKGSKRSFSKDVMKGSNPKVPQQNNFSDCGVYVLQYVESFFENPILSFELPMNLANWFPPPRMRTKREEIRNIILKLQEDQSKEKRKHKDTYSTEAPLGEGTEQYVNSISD", "test": "SAR Analysis of small molecule inhibitors of Sentrin-specific protease 6 (SENP6) using a Luminescent assay. [Related pubchem assays (depositor defined):AID2582, AID2599]"}, "[3]": {"target": "T3, Sentrin-specific protease 7 (Homo sapiens, UniProt Q9BQF6)", "T3 sequence (Q9BQF6 whole entry)": "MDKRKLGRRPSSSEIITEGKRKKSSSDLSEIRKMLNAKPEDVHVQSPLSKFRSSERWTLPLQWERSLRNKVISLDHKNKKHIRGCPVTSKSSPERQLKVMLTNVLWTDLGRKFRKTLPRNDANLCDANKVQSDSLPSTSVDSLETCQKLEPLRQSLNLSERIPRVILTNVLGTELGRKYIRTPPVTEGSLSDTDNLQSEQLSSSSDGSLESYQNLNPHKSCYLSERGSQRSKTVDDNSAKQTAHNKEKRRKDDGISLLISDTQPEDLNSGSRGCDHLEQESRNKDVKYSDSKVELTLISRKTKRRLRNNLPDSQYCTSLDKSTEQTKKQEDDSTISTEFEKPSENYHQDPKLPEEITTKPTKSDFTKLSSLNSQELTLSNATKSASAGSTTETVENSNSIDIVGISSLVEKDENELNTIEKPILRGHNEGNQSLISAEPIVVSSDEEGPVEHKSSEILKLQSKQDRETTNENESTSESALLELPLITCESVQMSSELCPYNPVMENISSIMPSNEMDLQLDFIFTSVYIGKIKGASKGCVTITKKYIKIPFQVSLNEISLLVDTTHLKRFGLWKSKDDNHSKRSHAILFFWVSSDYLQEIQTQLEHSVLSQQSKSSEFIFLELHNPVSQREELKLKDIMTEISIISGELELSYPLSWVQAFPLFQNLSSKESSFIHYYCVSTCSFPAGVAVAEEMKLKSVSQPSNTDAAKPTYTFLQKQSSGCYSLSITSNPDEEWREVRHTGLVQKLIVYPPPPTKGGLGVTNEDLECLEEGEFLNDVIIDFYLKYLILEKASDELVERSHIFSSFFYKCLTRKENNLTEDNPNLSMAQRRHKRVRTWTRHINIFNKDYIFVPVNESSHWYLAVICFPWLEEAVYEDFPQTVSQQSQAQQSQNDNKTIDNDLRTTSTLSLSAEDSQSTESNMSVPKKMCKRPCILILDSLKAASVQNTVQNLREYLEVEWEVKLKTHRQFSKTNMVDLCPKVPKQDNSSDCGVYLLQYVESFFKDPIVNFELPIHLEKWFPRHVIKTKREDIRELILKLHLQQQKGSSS", "test": "SENP7 protease inhibitors, SAR follow-up, biochemical, luminescence (AID 504497)"}, "[4]": {"target": "T4, Sentrin-specific protease 8 (Homo sapiens, UniProt Q96LD8)", "T4 sequence (Q96LD8 whole entry)": "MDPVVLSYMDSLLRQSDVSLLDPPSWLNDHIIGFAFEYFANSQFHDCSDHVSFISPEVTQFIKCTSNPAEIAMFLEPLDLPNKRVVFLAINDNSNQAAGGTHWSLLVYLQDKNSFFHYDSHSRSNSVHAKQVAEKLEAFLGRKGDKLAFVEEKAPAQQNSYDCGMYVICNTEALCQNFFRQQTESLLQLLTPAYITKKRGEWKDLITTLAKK", "test": "SENP8 protease inhibitors, SAR follow-up, biochemical, luminescence (AID 504501)"}, "[5]": {"test": "Vero cell cytotoxicity, dose response, cytotoxicity control for M. tuberculosis growth inhibitor project, Vero cells, purified and synthesized compounds, set 4 (AID 504854)", "settings": "Mycobacterium tuberculosis"}, "[6]": {"test": "THP-1 cell cytotoxicity, dose response, cytotoxicity control, set 3 (AID 504852)", "settings": "Mycobacterium tuberculosis"}, "[7]": {"target": "DNA dC->dU-editing enzyme APOBEC-3G (Homo sapiens, UniProt Q9HC16)", "sequence (Q9HC16 whole entry)": "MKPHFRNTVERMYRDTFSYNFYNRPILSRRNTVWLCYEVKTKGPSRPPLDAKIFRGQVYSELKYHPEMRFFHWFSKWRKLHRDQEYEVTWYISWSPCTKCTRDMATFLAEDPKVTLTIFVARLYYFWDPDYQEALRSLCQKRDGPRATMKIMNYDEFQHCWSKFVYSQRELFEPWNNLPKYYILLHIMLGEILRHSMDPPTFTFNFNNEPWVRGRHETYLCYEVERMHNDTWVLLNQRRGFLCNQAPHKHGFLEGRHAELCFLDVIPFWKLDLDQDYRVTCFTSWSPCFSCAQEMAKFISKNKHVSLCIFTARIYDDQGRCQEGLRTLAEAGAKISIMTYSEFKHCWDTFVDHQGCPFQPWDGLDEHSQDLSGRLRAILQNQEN", "test": "APOBEC3G deaminase inhibitors, SAR follow-up, biochemical, fluorescence, single-stranded DNA substrate (AID 602136)", "settings": "read-out: IC50_Mean"}, "[8]": {"target": "DNA dC->dU-editing enzyme APOBEC-3A (Homo sapiens, UniProt P31941)", "sequence (P31941 whole entry)": "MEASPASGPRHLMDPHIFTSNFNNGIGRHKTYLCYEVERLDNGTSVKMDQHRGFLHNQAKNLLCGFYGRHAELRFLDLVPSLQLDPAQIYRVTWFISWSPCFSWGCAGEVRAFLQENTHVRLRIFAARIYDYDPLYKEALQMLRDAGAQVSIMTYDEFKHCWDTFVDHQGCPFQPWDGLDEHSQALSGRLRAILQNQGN", "test": "SAR analysis of small molecule inhibitors of APOBEC3A DNA Deaminase via a fluorescence-based single-stranded DNA deaminase assay.", "settings": "read-out: IC50_Mean"}, "Caspase-3 [9]": {"target": "T1, Caspase-3", "test": "caspase-3 inhibitors as off-family protease, SAR follow-up, selectivity assay for SENP protease inhibitor project, biochemical, luminescence, set 2 (AID 588599)"}, "[10]": {"target": "T4, Sentrin-specific protease 8", "test": "SENP8 protease inhibitors, SAR follow-up, biochemical, luminescence, set 2 (AID 588601)"}, "[11]": {"target": "T2, Sentrin-specific protease 6", "test": "SENP6 protease inhibitors, SAR follow-up, biochemical, luminescence, set 2 (AID 588598)"}, "[12]": {"target": "T3, Sentrin-specific protease 7", "test": "SENP7 protease inhibitors, SAR follow-up, biochemical, luminescence, set 2 (AID 588600)"}}, "note": "The source made the active and inactive calls. Cut-off read from the data, not from the text of the source, for most assays here: actives have a measured IC50 and inactives only a lower limit."}
{"smiles": "CCC(=O)Nc1ccc2oc(-c3ccc(Cl)cc3)nc2c1", "values": [{"measurement": "IC50", "setting": "Caspase-3 [1]", "value": "2.27 µM (active)"}, {"measurement": "IC50", "setting": "[2]", "value": "1.81 µM (active)"}, {"measurement": "IC50", "setting": "[3]", "value": "1.31 µM (active)"}, {"measurement": "IC50", "setting": "[4]", "value": "1.76 µM (active)"}]}
{"smiles": "CC1CCN(C(=O)CSc2nc(O)c3ccccc3n2)CC1", "values": [{"measurement": "CC50", "setting": "[5]", "value": "> 100 µM (active)"}, {"measurement": "CC50", "setting": "[6]", "value": "> 100 µM (active)"}]}
{"smiles": "CCOC(=O)CC(c1ccc(N)cc1)n1c(C)ccc1C", "note": "(configuration not stated)", "values": [{"measurement": "IC50", "setting": "[7]", "value": "> 99 µM (inactive)"}, {"measurement": "IC50", "setting": "[8]", "value": "> 99 µM (inactive)"}]}
{"smiles": "O=C1CN(C(=O)C(=O)c2c[nH]c3ccccc23)c2ccccc2N1", "values": [{"measurement": "IC50", "setting": "Caspase-3 [9]", "value": "> 99 µM (inactive)"}, {"measurement": "IC50", "setting": "[10]", "value": "> 99 µM (inactive)"}, {"measurement": "IC50", "setting": "[11]", "value": "> 99 µM (inactive)"}, {"measurement": "IC50", "setting": "[12]", "value": "> 99 µM (inactive)"}]}
